Several values for one entry are separate records, joined by “and”; a condition that tells them apart may be missing. Equal values may be shown once. Entries after “also recorded” stand apart in the source; their conditions may differ. Read-outs that look alike come from different tables or passages of the source.
Experiments:
OMA1 [1] = test: OMA1 antagonist test: CCCP-induced OPA1 cleavage in HEK293T cells, OPA1 Western blot; format: cell-based, human; conditions: for proteolytic cleavage of large OPA1 isoforms upon CCCP: 2 hours before 10 μM CCCP for 30 min
Experimental: HEK293T cells were cultured and maintained in Dulbecco's Modified Eagle's Medium supplemented with 10% fetal bovine serum (FBS) and 2 mM […] in a 95% air-5% CO2 humidified atmosphere at 37° C. To test potential OMA1 antagonists, cells were seeded in 24-well plates and incubated over night to achieve around 90% confluency. For experiments the culture medium was replaced with Minimal Essential Medium and cells were pre-incubated with variable concentrations of the different test-compounds for 2 hours in a 95% air-5% CO2 humidified atmosphere at 37° C. After 2 hours, OMA1 protease was activated through the addition of carbonyl cyanide m-chlorophenyl hydrazone (CCCP; 10 μM final concentration) for 30 min in the presence of different concentrations of compounds to be tested. After 30 minutes, cells were immediately placed on ice, the medium removed, and cells harvested through addition of 100 μl RIPA buffer supplemented with protease inhibitor cocktail. Samples were separated on 8% tris-glycine gels and transferred onto nitro-cellulose membranes by Wester blotting. Membranes were immunolabeled with anti-OPA1 Antibodies (1:1,000) and with goat-anti-mouse Alkaline Phosphatase conjugated secondary antibodies (1:5,000). OPA1 protein was visualized with NBT/BCIP between 5 and 15 minutes before the reaction was stopped with an excess of distilled water.
CCCP is a potent mitochondrial oxidative phosphorylation uncoupler that activates OMA1 and creates conditions that allow OPA1 cleavage to occur.

OMA1 [2] = conditions: 1% Isoflurane, 90 minutes twice daily, cited from earlier work
OMA1 [3] = test: OMA1 gene expression micro-arrays in rat brain; format: in vivo; conditions: 10 exposures
Experimental: Rats were exposed to 1% Isoflurane for 90 minutes twice daily for a total of 5 or 10 exposures, after which animals were sacrificed and brain samples analyzed by gene expression micro-arrays (Pan et al. 2006).

OMA1 [4] = test: OPA1-Western blot of Hek293T cells incubated with tipranavir, OMA1 activated with CCCP or sorafenib; format: cell-based, human
Experimental: FIG. 28. […] OMA1 was activated with 3 μM CCCP for 30 minutes.
FIG. 29. Tipranavir can activate OMA1 at concentrations above 20 μM. […] OMA1 was then activated with 4 μM CCCP for 30 minutes in the indicated samples.
FIG. 30. […] OMA1 was then activated with either 3 μM CCCP or 30 μM sorafenib (SFB) for 30 minutes in the indicated samples.
Experimentally, OMA1 can be activated in cellular assays by the mitochondrial uncoupler [(3-chlorophenyl)hydrazono]propanedinitrile (CCCP).
Example 9. Tipranavir can activate OMA1 at concentrations above 20 μM. To further determine tipranavir's effect on OPA1, I incubated Hek293T cells for an hour with low doses of 0 μM, 20 μM and 40 μM tipranavir (FIG. 29).
Example 10. 100 μM tipranavir can inhibit OPA1 cleavage upon CCCP-treatment and upon sorafenib treatment. […] To investigate whether 100 μM tipranavir can inhibit CCCP-induced OPA1-cleavage or OPA1-cleavage induced by other agents as well, I incubated Hek293T cells for an hour with low doses of 0 μM, 50 μM or 100 μM tipranavir before activating OMA1 with either 3 μM CCCP or 30 μM sorafenib (see FIG. 30).

OMA1 [5] = test: OMA1 agonist test: CCCP threshold of OMA1 activation/OPA1 cleavage in HEK293T cells; format: cell-based, human
OPA1 = conditions: cells cultured with the compound; cited from earlier work
OMA1 [6] = conditions: RS4.11 cells, 10 μM SB216763, 20 hours; cited from earlier work
OMA1 [7] = test: OMA1 gene expression microarray in RS4.11 MLL leukemia cells; format: cell-based, human; conditions: RS4.11 cells, 10 μM SB216763, 20 hours
Experimental: Human MLL leukemia RS4.11 cells were cultured without or with 10 μM SB216763 for 20 hours (Wang et al. 2010). […] SB216763 is a kinase inhibitor and the finding that SB216763 can increase OMA1 levels was unexpected and is non-obvious to a person skilled in the arts. In context of the present invention SB216763 thus represents an agonist of OMA1 and/or an oligomeric complex comprising OMA1 as defined above. Accordingly, SB216763 represents a medical intervention in particular for the treatment, prevention and/or amelioration of a disorder or disease correlated with mitochondrial stress or dysfunction, a mitochondrial disorder or disease, or a disorder or disease characterized by OPA1 alterations.
Referring to FIG. 23, the GSK-3 inhibitor SB216763 (CAS #280744-09-4) represents an agonist of OMA1. […] RS4.11 cells were cultured for 20 hours without or with 10 μM SB216763, after which mRNA was isolated and analyzed by gene expression microarrays. Controls expressed OMA1 at 8.10 (±0.01 S.D.) and SB216763 treated cells expressed OMA1 at 8.7 (±0.18 S.D.).

OMA1 [8] = test: OMA1 gene expression microarray in KMH2 cells; format: cell-based, human; conditions: 20 mM glucosamine, 24 hours
Experimental: Human malignant lymphocytes (KMH2 cells) were cultured without or with 20 mM glucosamine (Carvalho et al. 2014). After 24 hours mRNA was isolated and analyzed by gene expression microarrays. Controls expressed OMA1 at 7.31 (±0.08 S.D.) and glucosamine treated cells expressed OMA1 at 6.69 (±0.06 S.D.). Glucosamine is a dietary supplement and its effects on mitochondria are known to a person skilled in the arts (Carvalho et al. 2014; Bond and Hanover 2015; Tan et al. 2017). […] In context of the present invention glucosamine thus represents an antagonist of OMA1 and/or an oligomeric complex comprising OMA1 as defined above. Accordingly, glucosamine represents a medical intervention in particular for the treatment, prevention and/or amelioration of a disorder or disease correlated with mitochondrial stress or dysfunction, a mitochondrial disorder or disease, or a disorder or disease characterized by OPA1 alterations.
Referring to FIG. 21, the dietary supplement glucosamine (CAS #3416-24-8) represents an antagonist of OMA1. […] KMH2 cells were cultured for 24 hours without or with 20 mM glucosamine, after which mRNA was isolated and analyzed by gene expression microarrays. Controls expressed OMA1 at 7.31 (±0.08 S.D.) and glucosamine treated cells expressed OMA1 at 6.69 (±0.06 S.D.).

OMA1 [9] = conditions: KMH2 cells, 20 mM glucosamine, 24 hours; cited from earlier work

CC(C)ON(CC(=O)NO)S(=O)(=O)c1ccc(-c2ccccc2)cc1 [ARP100]
proteolytic cleavage of large OPA1 isoforms upon CCCP (OMA1 [1]; 70 μM): all OPA1 isoforms including the large OPA1-L1 and OPA1-L2 isoforms were readily detectable; also recorded: The large OPA1-L1 and OPA1-L2 isoforms were still readily detectable

O=C(O)CNC(=O)C(CS)Cc1ccccc1 (stereo not shown) [Thiorphan]
proteolytic cleavage of large OPA1 isoforms upon CCCP (OMA1 [1]; 100 μM): all OPA1 isoforms including the two large OPA1-L1 and OPA1-L2 isoforms were readily detectable; also recorded: The large OPA1-L1 and OPA1-L2 isoforms were still readily detectable

FC(F)OC(Cl)C(F)(F)F (stereo not shown) [Isoflurane]
OMA1 expression level in rat brain (OMA1 [2]; 5 exposures): 19.1 (±3.4 S.D.) | OMA1 expression level in rat brain (OMA1 [2]; 10 exposures): 29.3 (±6.3 S.D.) | increase of OMA1 gene expression in rat brain (OMA1 [3]): 180% and 280%

CNC(=O)c1cc(Oc2ccc(NC(=O)Nc3ccc(Cl)c(C(F)(F)F)c3)cc2)ccn1 [sorafenib]
OMA1 activation / OPA1 cleavage by sorafenib alone (OMA1 [4]; 30 μM sorafenib, 30 minutes): activate OMA1 and lead to OPA1 cleavage similar to CCCP

O=S(=O)(CC1CS1)c1ccc(Oc2ccccc2)cc1 (stereo not shown) [SB-3CT]
OPA1 cleavage without CCCP (OMA1 [5]; 100 μM SB-3CT, 0 μM CCCP): did not show OPA1 alterations; also recorded: did not induce OPA1 cleavage without CCCP | OPA1 cleavage / OMA1 activation at low CCCP (OMA1 [5]; 100 μM SB-3CT, 3 μM and 5 μM CCCP for 20 minutes): caused OPA1 cleavage to occur already at 3 μM and 5 μM CCCP; also recorded: OMA1 was already activated at lower concentrations of 3 μM and 5 μM CCCP

c1cnc2c(c1)ccc1cccnc12 [phenanthroline]
OPA1 levels and OPA1L/OPA1S isoforms (OPA1): an increase in the OPA1L isoform | proteolytic cleavage of large OPA1 isoforms upon CCCP (OMA1 [1]; 500 μM): The large OPA1-L1 and OPA1-L2 isoforms were still readily detectable; also recorded: inhibited proteolytic cleavage of OPA1 by OMA1

CCC[C@@]1(CCc2ccccc2)CC(O)=C([C@H](CC)c2cccc(NS(=O)(=O)c3ccc(C(F)(F)F)cn3)c2)C(=O)O1 [tipranavir]
concentration at which tipranavir can activate OMA1 (OMA1 [4]; Hek293T cells, 1 hour): above 20 μM

Cn1cc(C2=C(c3ccc(Cl)cc3Cl)C(=O)NC2=O)c2ccccc21 [SB216763]
OMA1 expression level (OMA1 [6]): 8.7 (±0.18 S.D.) | increase of OMA1 gene expression levels (OMA1 [7]): 7.6%

N[C@H]1C(O)O[C@H](CO)[C@@H](O)[C@@H]1O (stereo partly shown) [glucosamine]
decrease of OMA1 gene expression levels (OMA1 [8]): 8.5% | OMA1 expression level (OMA1 [9]): 6.69 (±0.06 S.D.)

N#CC(C#N)=NNc1cccc(Cl)c1 [CCCP, carbonyl cyanide m-chlorophenyl hydrazone]
OPA1 processing by CCCP alone (OMA1 [5]; 0 μM, 3 μM and 5 μM CCCP, untreated (vehicle-only) cells): had no effect on OPA1 processing in untreated cells | OPA1 cleavage / OMA1 activation by CCCP alone (OMA1 [5]; 7 μM CCCP, untreated (vehicle-only) cells): OPA1 was cleaved only at the highest concentration of 7 μM CCCP; also recorded: OMA1 was activated at the highest concentration of 7 μM CCCP | L-OPA1 hydrolysis by CCCP alone (OMA1 [4]; 3 μM CCCP, 30 minutes): all L-OPA1 isoforms are hydrolyzed upon CCCP treatment | OMA1 activation / OPA1 cleavage by CCCP alone (OMA1 [1]; 10 μM CCCP, 30 minutes): resulted in cleavage of both large OPA1-L1 and OPA1-L2 isoforms; also recorded: could activate OMA1, which resulted in the cleavage of the OPA1-L1 and OPA1-L2 isoforms

— patent US11993590B2, “Pyranone compounds useful to modulate OMA1 protease” (712 North Inc., priority 2016, dated 2024)
